According to patent publication US20230130102A1, “Na/K-ATPase LIGANDS AND USE THEREOF FOR TREATMENT OF CANCER” (Marshall University Research Corporation, priority 2019, published 2023):
Where “and” joins values, the source holds several entries; their conditions need not be identical. Equal entries are not always repeated. Entries after “also recorded” stand apart in the source; their conditions may differ.

What was measured:
[1] = tested on: subclone 5 spheroids (DU145 derived); assay: 3D culture spheroid growth, subclone 5; format: cell-based, human; details: subclone 5 spheroids in 3D culture
Experimental: (§1) 3D culture-spheroid invasion assay. Cells were trypsinized gently (0.05% Trypsin-EDTA) and diluted at 1000 cells in 20 μl of full serum media for DU145 and C4-2 derived sub-clones or 500 cells in 20 ul for PC3 cells and allowed to form spheroids using hanging drop technique for 3 days, as described previously. Generated spheroids were then embedded into 3D matrix (not yet solidified at the time of experiment), as described in the previous section, on top of a 1% solidified agarose coating in 48 well plates. Spheroids were monitored from day 1 to different time points and images were taken using a phase contrast microscope fitted with camera, at same settings. Spheroid growth or invasion area was quantified using ImageJ software from NIH. The following formulas were used for quantitation of spheroids:
(§2) Spheroid growth=(Spheroid area at Day 3 or 7-Spheroid area at 16 hours)/Spheroid area at 16 hours
For drug treatment, compound was diluted into media, from stock solution. For MMP secretion, conditioned media for 3 days were collected from top of matrix and assessed for MMP secretion by Western blot using Matrix Remodeling Antibody Sampler kit from Cell Signaling Technology (Cat #73959).

[2] = target: T1, purified pig kidney NKA (Sus scrofa, UniProt P05024); assay: Na/K-ATPase (ATPase) activity assay; format: biochemical
T1 construct: Na/K-ATPase activity assay of MB5 with purified pig kidney enzyme; from tissue; host or cells: pig kidney
Experimental: (§3) It is appreciated that ouabain induces Src/ERK activation (increased protein phosphorylation) of LLC-PK1 cells by binding to α1 NKA and thereby initiates a signaling cascade which results in the endocytosis of the α1 NKA to terminate the signaling.
ATPase activity assay. ATPase activity assay was performed as previously described.
As archetypal agonists of NKA receptor function, ouabain and other CTS stimulate cellular signaling by activating α1 NKA/Src signalosome complex, which results in its endocytosis. It was reasoned that compounds that inhibit CTS induced signaling could function as inverse agonists of this signalosome complex and prevent α1 NKA endocytosis. A group of hydroxyxanthones were thus tested that were identified as a new class of Na/K-ATPase ligands using a high throughput in vitro screening platform and a library of 2600 structurally diverse chemicals.

[3] = tested on: parental C4-2 cells; assay: 3D culture spheroid growth, C4-2; format: cell-based, human; details: parental C4-2, 0.1-2 μM, Day 1-7
Experimental: as §1, §2

[4] = target: T2, YFP-tagged α1 NKA (Rattus norvegicus, UniProt P06685); assay: ouabain-induced α1 NKA endocytosis in YFP-α1-TCN cells; format: cell-based; details: YFP-α1-TCN cells, pretreatment
T2 construct: expressed in transfected cells; host or cells: YFP-α1-TCN cells
Experimental: as §3
α1 NKA endocytosis assay. Endocytosis assay was performed as described before.
Characterization of MB5 activity on the NKA receptor function known as the NKA/Src binary receptor mechanism was conducted in a pig kidney epithelial cells (LLC-PK1)-based platform using immunostaining and Western blot analyses. […] The change of NKA conformation that occurs upon binding of agonists such as ouabain, results in the release and activation of the Src kinase domain from the “Naktide” site of NKA CD3, while the other interaction (constitutive) persists between NKA CD2 and the SH2 domain of Src.

SMILES: O=c1c2cccc(O)c2oc2c(O)c(O)ccc12 [MB5]
- spheroid size [1]: significantly reduced the size of subclone 5 spheroids
- inhibition of NKA activity ([2]; about 1 nM to 100 nM): ~25%
- high affinity component, share of Na/K-ATPase activity ([2]; biphasic NKA inhibition curve): 20%
- IC50 ([2]; purified pig kidney enzyme, low affinity component of biphasic curve): ~10 µM and 10 µM
- inhibition of NKA activity ([2]; ~10 μM): ~50%
- spheroid growth [3]: did not significantly affect spheroid growth
- inhibition of ouabain-induced α1 NKA endocytosis [4]: able to inhibit ouabain-induced α1 NKA endocytosis; also recorded: potent inverse agonist of ouabain-induced α1 NKA endocytosis; also recorded: inhibited ouabain-induced α1 NKA endocytosis in a concentration dependent manner
